Measurements as given in patent US6005008A, “IL-8 receptor antagonists” (SmithKline Beecham Corporation, priority 1997, dated 1999).

Molecular target: T1, recombinant IL-8 Rβ, or Type II, receptor (Homo sapiens, UniProt P25025)
T1 sequence (P25025 1-360): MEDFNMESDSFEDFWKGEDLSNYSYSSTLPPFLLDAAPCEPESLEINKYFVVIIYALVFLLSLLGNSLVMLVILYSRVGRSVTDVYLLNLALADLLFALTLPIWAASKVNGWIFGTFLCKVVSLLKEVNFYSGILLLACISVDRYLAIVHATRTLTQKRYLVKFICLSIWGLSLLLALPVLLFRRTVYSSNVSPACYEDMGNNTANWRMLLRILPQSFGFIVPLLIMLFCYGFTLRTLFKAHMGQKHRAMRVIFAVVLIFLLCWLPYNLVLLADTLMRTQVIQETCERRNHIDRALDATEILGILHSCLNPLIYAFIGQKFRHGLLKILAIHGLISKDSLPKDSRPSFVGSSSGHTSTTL
Assay: Receptor binding assay, 125I IL-8, IL-8Rβ CHO membranes (permissive model)
Description: [^125 I] IL-8 (human recombinant) was obtained from Amersham Corp., Arlington Heights, Ill., with specific activity 2000 Ci/mmol. Gro-α was obtained from NEN-New England Nuclear. All other chemicals were of analytical grade. High levels of recombinant human IL-8 type α and β receptors were individually expressed in Chinese hamster ovary cells as described previously (Holmes, et al., Science, 1991, 253, 1278). The Chinese hamster ovary membranes were homogenized according to a previously described protocol (Haour, et al., J Biol Chem., 249 pp 2195-2205 (1974)). Except that the homogenization buffer was changed to 10 mM Tris-HCL, 1 mM MgS04, 0.5 mM EDTA (ethylene-diaminetetra-acetic acid), 1 mMPMSF (α-toluenesulphonyl fluoride), 0.5 mg/L Leupeptin, pH 7.5. Membrane protein concentration was determined using Pierce Co. micro-assay kit using bovine serum albumin as a standard. All assays were performed in a 96-well micro plate format. Each reaction mixture contained ^125 I IL-8 (0.25 nM) or ^125 I Gro-α and 0.5 μg/mL of IL-8Rα or 1.0 μg/mL or IL-8Rβ membranes in 20 mM Bis-Trispropane and 0.4 mM Tris HCl buffers, pH 8.0, containing 1.2 mM MgSO4, 0.1 mM EDTA, 25 mM NaCl and 0.03% CHAPS. […] The filter was then dried and counted on the Betaplate liquid scintillation counter. […]

found to be active at (IL-8 receptor inhibition): about 75 μg/mL
SMILES: Cc1cc(Cl)ccc1NC(=O)Nc1ccccc1C(=O)O [1-(2-Carboxyphenyl)-3-(4-chloro-2-methylphenyl)urea]
